In patent US20100267561A1, “HERBICIDAL PYRIDAZINONE DERIVATIVES” (priority 2007, published 2010):

Assays:
Type in all cases: in vivo
[1] = test system: winter barley (Hordeum vulgare); experiment: Test B postemergence plant response; conditions: Postemergence
Summary of the method: (§1)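 Following treatment of plants 2 to 18 cm high after emergence, pots were held under glass for 13 to 15 days; efficacy was then graded visually, 100 denoting complete control and a dash no test result.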

[2] = test system: chickweed (Stellaria media); experiment: Test B postemergence plant response; conditions: Postemergence
Summary of the method: as §1

[3] = test system: windgrass (Apera spica-venti); experiment: Test B postemergence plant response; conditions: Postemergence
Summary of the method: as §1

[4] = test system: green foxtail (Setaria viridis); experiment: Test B pre-/postemergence plant response
Summary of the method: (§2)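 Seeds were sown and sprayed preemergence, while plants at 2 to 18 cm (1- to 4-leaf stage) got postemergence sprays. Compounds were formulated in a non-phytotoxic solvent mixture with surfactant. After 13 to 15 days in a greenhouse, injury was rated visually against untreated controls, 0 (no effect) to 100 (complete control).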

[5] = test system: cocklebur (Xanthium strumarium); experiment: Test B pre-/postemergence plant response
Summary of the method: as §2

[6] = test system: surinam grass (Brachiaria decumbens); experiment: Test B pre-/postemergence plant response
Summary of the method: as §2

[7] = test system: large crabgrass (Digitaria sanguinalis); experiment: Test B pre-/postemergence plant response
Summary of the method: as §2

[8] = test system: Russian thistle (Salsola iberica); experiment: Test B pre-/postemergence plant response; conditions: Preemergence
Summary of the method: as §2

[9] = test system: bermudagrass (Cynodon dactylon); experiment: Test B pre-/postemergence plant response
Summary of the method: as §2

[10] = test system: Italian ryegrass (Lolium multiflorum); experiment: Test B pre-/postemergence plant response
Summary of the method: as §2

[11] = test system: wheat (Triticum aestivum); experiment: Test B pre-/postemergence plant response
Summary of the method: as §2

[12] = test system: eastern black (E.B.) nightshade (Solanum ptycanthum); experiment: Test B pre-/postemergence plant response; conditions: Preemergence
Summary of the method: as §2

[13] = test system: goosegrass (Eleusine indica); experiment: Test B pre-/postemergence plant response
Summary of the method: as §2

[14] = test system: morningglory (Ipomoea coccinea); experiment: Test B pre-/postemergence plant response
Summary of the method: as §2

[15] = test system: johnsongrass (Sorghum halepense); experiment: Test B pre-/postemergence plant response
Summary of the method: as §2

soybean (Glycine max) = experiment: Test B pre-/postemergence plant response
Summary of the method: as §2

[16] = 31 g ai/ha, scale 0 to 100, 0 no effect, 100 complete control
[17] = Postemergence, 31 g ai/ha, scale 0 to 100, 0 no effect, 100 complete control
[18] = Postemergence, 62 g ai/ha, scale 0 to 100
[19] = Postemergence, 125 g ai/ha, scale 0 to 100
[20] = Postemergence, 250 g ai/ha, scale 0 to 100
[21] = Preemergence, 31 g ai/ha, 0 to 100 scale, 0 no effect, 100 complete control
[22] = Preemergence, 62 g ai/ha, scale 0 to 100
[23] = Preemergence, 125 g ai/ha, scale 0 to 100
[24] = Preemergence, 250 g ai/ha, scale 0 to 100
[25] = 31 g ai/ha, 0 to 100 scale, 0 no effect, 100 complete control

Cc1nn(C)c(=O)c(-n2nc(-c3ccc(Cl)cc3)cc2C)c1O [Compound 15]
Plant response rating, Barley [1, 16]: 10
Plant response rating, Barley ([1]; 62 g ai/ha, scale 0 to 100): 10
Plant response rating, Barley ([1]; 125 g ai/ha, scale 0 to 100): 90
Plant response rating, Chickweed [2, 16]: 0
Plant response rating, Chickweed ([2]; 62 g ai/ha, scale 0 to 100): 0
Plant response rating, Chickweed ([2]; 125 g ai/ha, scale 0 to 100): 0
Plant response rating, Chickweed ([2]; 250 g ai/ha, scale 0 to 100): 0
Plant response rating, Windgrass [3, 16]: 90
Plant response rating, Windgrass ([3]; 62 g ai/ha, scale 0 to 100): 90
Plant response rating, Windgrass ([3]; 125 g ai/ha, scale 0 to 100): 100
Plant response rating, Windgrass ([3]; 250 g ai/ha, scale 0 to 100): 100
Plant response rating, Foxtail, Green [4, 17]: 95
Plant response rating, Foxtail, Green [4, 18]: 95
Plant response rating, Foxtail, Green [4, 19]: 100
Plant response rating, Foxtail, Green [4, 20]: 100
Plant response rating, Foxtail, Green [4, 21]: 100
Plant response rating, Foxtail, Green [4, 22]: 100
Plant response rating, Foxtail, Green [4, 23]: 100
Plant response rating, Foxtail, Green [4, 24]: 100
Plant response rating, Cocklebur [5, 17]: 0
Plant response rating, Cocklebur [5, 18]: 0
Plant response rating, Cocklebur [5, 19]: 0
Plant response rating, Cocklebur [5, 20]: 0
Plant response rating, Cocklebur [5, 21]: 0
Plant response rating, Cocklebur [5, 22]: 0
Plant response rating, Cocklebur [5, 23]: 0
Plant response rating, Cocklebur [5, 24]: 10
Plant response rating, Surinam Grass [6, 17]: 100
Plant response rating, Surinam Grass [6, 18]: 100
Plant response rating, Surinam Grass [6, 19]: 100
Plant response rating, Surinam Grass [6, 20]: 100
Plant response rating, Surinam Grass [6, 21]: 100
Plant response rating, Surinam Grass [6, 22]: 100
Plant response rating, Surinam Grass [6, 23]: 100
Plant response rating, Surinam Grass [6, 24]: 100
Plant response rating, Crabgrass, Large [7, 17]: 90
Plant response rating, Crabgrass, Large [7, 18]: 90
Plant response rating, Crabgrass, Large [7, 19]: 98
Plant response rating, Crabgrass, Large [7, 20]: 100
Plant response rating, Crabgrass, Large [7, 21]: 85
Plant response rating, Crabgrass, Large [7, 22]: 100
Plant response rating, Crabgrass, Large [7, 23]: 100
Plant response rating, Crabgrass, Large [7, 24]: 100
Plant response rating, Russian Thistle [8, 25]: 0
Plant response rating, Russian Thistle ([8]; 250 g ai/ha, scale 0 to 100): 80
Bermudagrass plant response rating ([9]; 250 g ai/ha, preemergence, 0-100 scale): 100
Plant response rating, Bermudagrass [9, 17]: 70
Plant response rating, Bermudagrass [9, 18]: 100
Plant response rating, Bermudagrass [9, 19]: 100
Plant response rating, Bermudagrass [9, 20]: 100
Plant response rating, Bermudagrass [9, 21]: 98
Plant response rating, Bermudagrass [9, 22]: 98
Plant response rating, Bermudagrass [9, 23]: 100
Plant response rating, Ryegrass, Italian [10, 17]: 98
Plant response rating, Ryegrass, Italian [10, 18]: 100
Plant response rating, Ryegrass, Italian [10, 19]: 100
Plant response rating, Ryegrass, Italian [10, 20]: 100
Plant response rating, Ryegrass, Italian [10, 21]: 70
Plant response rating, Ryegrass, Italian [10, 22]: 100
Plant response rating, Ryegrass, Italian [10, 23]: 100
Plant response rating, Ryegrass, Italian [10, 24]: 100
Plant response rating, Wheat [11, 17]: 5
Plant response rating, Wheat [11, 18]: 60
Plant response rating, Wheat [11, 19]: 70
Plant response rating, Wheat [11, 20]: 85
Plant response rating, Wheat [11, 21]: 0
Plant response rating, Wheat [11, 22]: 60
Plant response rating, Wheat [11, 23]: 60
Plant response rating, Wheat [11, 24]: 80
Plant response rating, Nightshade, E. B. [12, 25]: 0
Plant response rating, Nightshade, E. B. ([12]; 62 g ai/ha, scale 0 to 100): 0
Plant response rating, Nightshade, E. B. ([12]; 125 g ai/ha, scale 0 to 100): 0
Plant response rating, Nightshade, E. B. ([12]; 250 g ai/ha, scale 0 to 100): 0
Plant response rating, Goosegrass [13, 17]: 45
Plant response rating, Goosegrass [13, 18]: 60
Plant response rating, Goosegrass [13, 19]: 90
Plant response rating, Goosegrass [13, 20]: 100
Plant response rating, Goosegrass [13, 21]: 0
Plant response rating, Goosegrass [13, 22]: 90
Plant response rating, Goosegrass [13, 23]: 90
Plant response rating, Goosegrass [13, 24]: 100
Plant response rating, Morningglory [14, 17]: 0
Plant response rating, Morningglory [14, 18]: 0
Plant response rating, Morningglory [14, 19]: 0
Plant response rating, Morningglory [14, 20]: 0
Plant response rating, Morningglory [14, 21]: 0
Plant response rating, Morningglory [14, 23]: 0
Plant response rating, Johnsongrass [15, 17]: 70
Plant response rating, Johnsongrass [15, 18]: 80
Plant response rating, Johnsongrass [15, 19]: 100
Plant response rating, Johnsongrass [15, 20]: 100
Plant response rating, Johnsongrass [15, 21]: 70
Plant response rating, Johnsongrass [15, 22]: 95
Plant response rating, Johnsongrass [15, 23]: 98
Plant response rating, Johnsongrass [15, 24]: 100
Plant response rating, Soybean (soybean (Glycine max); [17]): 0
Plant response rating, Soybean (soybean (Glycine max); [18]): 0
Plant response rating, Soybean (soybean (Glycine max); [19]): 0
Plant response rating, Soybean (soybean (Glycine max); [20]): 0
Plant response rating, Soybean (soybean (Glycine max); [21]): 0
Plant response rating, Soybean (soybean (Glycine max); [22]): 0
Plant response rating, Soybean (soybean (Glycine max); [24]): 30
